Data taken from article PMC7156458, “Synthetic biology based construction of biological activity-related library of fungal decalin-containing diterpenoid pyrones” (Nature Communications, 2020).

Biological target: Aβ42 (Homo sapiens, UniProt P05067)
Assay: Th-T (thioflavin-T) assay of Aβ42 aggregation
Type: biochemical
Settings: for Th-T fluorescence, mean of three wells: Aβ42 aggregation time course

Aβ42, sequence (P05067 672-713): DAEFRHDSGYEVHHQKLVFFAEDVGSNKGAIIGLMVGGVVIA

Structure (SMILES): C=C1CC[C@@H]2[C@](C)(CC[C@H]3O[C@H](C=C(C)C)C[C@@]23C)[C@@H]1Cc1c(OC)oc(CO)c(C(=O)OC)c1=O [Compound 21]
- first Th-T assay result (Aβ42 (10 μM) ± DPPs (20 μM), room temperature): clearly delayed nuclei formation of Aβ42
- Th-T fluorescence, mean of three wells (reading M117): 1.039
- Th-T fluorescence, mean of three wells (reading M118): 1.038
- Th-T fluorescence, mean of three wells (reading M119): 1.047
- Th-T fluorescence, mean of three wells (reading M120): 1.046
- Th-T fluorescence, mean of three wells (reading M121): 1.028
- Th-T fluorescence, mean of three wells (reading M122): 1.042
- Th-T fluorescence, mean of three wells (reading M123): 1.04
- Th-T fluorescence, mean of three wells (reading M124): 1.043
- Th-T fluorescence, mean of three wells (reading M125): 1.031
- Th-T fluorescence, mean of three wells (reading M126): 1.048
- Th-T fluorescence, mean of three wells (reading M127): 1.027
- Th-T fluorescence, mean of three wells (reading M128): 1.04
- Th-T fluorescence, mean of three wells (reading M129): 1.041
- Th-T fluorescence, mean of three wells (reading M130): 1.048
- nucleation phase of Aβ42 delayed until (Th-T fluorescence of Aβ42 alone began to increase after 4 h): 13 h
- Th-T fluorescence, mean of three wells (Fig. 7a) (column suffix _10, measurement M19): 0.2262
- Th-T fluorescence, mean of three wells (Fig. 7a) (column suffix _10, measurement M20): 0.2276
- Th-T fluorescence, mean of three wells (Fig. 7a) (column suffix _10, measurement M21): 0.2311
- Th-T fluorescence, mean of three wells (Fig. 7a) (column suffix _10, measurement M22): 0.2318
- Th-T fluorescence, mean of three wells (Fig. 7a) (column suffix _10, measurement M23): 0.2319
- Th-T fluorescence, mean of three wells (Fig. 7a) (column suffix _10, measurement M24): 0.2323
- Th-T fluorescence, mean of three wells (Fig. 7a) (column suffix _10, measurement M25): 0.2332
- Th-T fluorescence, mean of three wells (Fig. 7a) (column suffix _10, measurement M26): 0.2371
- Th-T fluorescence, mean of three wells (Fig. 7a) (column suffix _10, measurement M27): 0.238
- Th-T fluorescence, mean of three wells (Fig. 7a) (column suffix _10, measurement M28): 0.2386
- Th-T fluorescence, mean of three wells (Fig. 7a) (column suffix _10, measurement M29): 0.2373
- Th-T fluorescence, mean of three wells (Fig. 7a) (column suffix _10, measurement M30): 0.2428
- Th-T assay signal, mean of three wells (Fig. 7a) (column suffix _10, reading M1): 0.2407
- Th-T assay signal, mean of three wells (Fig. 7a) (column suffix _10, reading M2): 0.2463
- Th-T assay signal, mean of three wells (Fig. 7a) (column suffix _10, reading M3): 0.2449
- Th-T assay signal, mean of three wells (Fig. 7a) (column suffix _10, reading M4): 0.2384
- Th-T assay signal, mean of three wells (Fig. 7a) (column suffix _10, reading M5): 0.2363
- Th-T assay signal, mean of three wells (Fig. 7a) (column suffix _10, reading M6): 0.2279
- Th-T assay signal, mean of three wells (Fig. 7a) (column suffix _10, reading M7): 0.2237
- Th-T assay signal, mean of three wells (Fig. 7a) (column suffix _10, reading M8): 0.2225
- Th-T assay signal, mean of three wells (Fig. 7a) (column suffix _10, reading M9): 0.2211
- Th-T assay signal, mean of three wells (Fig. 7a) (column suffix _10, reading M10): 0.2184
- Th-T assay signal, mean of three wells (Fig. 7a) (column suffix _10, reading M11): 0.2174
- Th-T assay signal, mean of three wells (Fig. 7a) (column suffix _10, reading M12): 0.2206
- Th-T assay signal, mean of three wells (Fig. 7a) (column suffix _10, reading M13): 0.2193
- Th-T assay signal, mean of three wells (Fig. 7a) (column suffix _10, reading M14): 0.2201
- Th-T assay signal, mean of three wells (Fig. 7a) (column suffix _10, reading M15): 0.222
- Th-T assay signal, mean of three wells (Fig. 7a) (column suffix _10, reading M16): 0.2237
- Th-T assay signal, mean of three wells (Fig. 7a) (column suffix _10, reading M17): 0.228
- Th-T assay signal, mean of three wells (Fig. 7a) (column suffix _10, reading M18): 0.2253
- Fig. 7a Th-T reading, mean of three wells (column suffix _10, reading M85): 1.478
- Fig. 7a Th-T reading, mean of three wells (column suffix _10, reading M86): 1.509
- Fig. 7a Th-T reading, mean of three wells (column suffix _10, reading M87): 1.557
- Fig. 7a Th-T reading, mean of three wells (column suffix _10, reading M88): 1.549
- Fig. 7a Th-T reading, mean of three wells (column suffix _10, reading M89): 1.5658
- Fig. 7a Th-T reading, mean of three wells (column suffix _10, reading M90): 1.591
- Fig. 7a Th-T reading, mean of three wells (column suffix _10, reading M91): 1.5663
- Fig. 7a Th-T reading, mean of three wells (column suffix _10, reading M92): 1.592
- Fig. 7a Th-T reading, mean of three wells (column suffix _10, reading M93): 1.631
- Fig. 7a Th-T reading, mean of three wells (column suffix _10, reading M94): 1.598
- Fig. 7a Th-T reading, mean of three wells (column suffix _10, reading M95): 1.661
- Fig. 7a Th-T reading, mean of three wells (column suffix _10, reading M96): 1.586
- Fig. 7a Th-T reading, mean of three wells (column suffix _10, reading M97): 1.595
- Fig. 7a Th-T reading, mean of three wells (column suffix _10, reading M98): 1.638
- Fig. 7a Th-T reading, mean of three wells (column suffix _10, reading M99): 1.631
- Fig. 7a Th-T reading, mean of three wells (column suffix _10, reading M100): 1.623
- Fig. 7a Th-T reading, mean of three wells (column suffix _10, reading M101): 1.644
- Fig. 7a Th-T reading, mean of three wells (column suffix _10, reading M102): 1.607
- Fig. 7a Th-T reading, mean of three wells (column suffix _10, reading M103): 1.621
- Fig. 7a Th-T reading, mean of three wells (column suffix _10, reading M104): 1.621
- Fig. 7a Th-T reading, mean of three wells (column suffix _10, reading M105): 1.667
- Fig. 7a Th-T reading, mean of three wells (column suffix _10, reading M106): 1.671
- Th-T fluorescence, mean of three wells (Fig. 7a) (column suffix _20, measurement M19): 0.1942
- Th-T fluorescence, mean of three wells (Fig. 7a) (column suffix _20, measurement M20): 0.198
- Th-T fluorescence, mean of three wells (Fig. 7a) (column suffix _20, measurement M21): 0.1975
- Th-T fluorescence, mean of three wells (Fig. 7a) (column suffix _20, measurement M22): 0.1979
- Th-T fluorescence, mean of three wells (Fig. 7a) (column suffix _20, measurement M23): 0.1984
- Th-T fluorescence, mean of three wells (Fig. 7a) (column suffix _20, measurement M24): 0.2012
- Th-T fluorescence, mean of three wells (Fig. 7a) (column suffix _20, measurement M25): 0.2016
- Th-T fluorescence, mean of three wells (Fig. 7a) (column suffix _20, measurement M26): 0.2021
- Th-T fluorescence, mean of three wells (Fig. 7a) (column suffix _20, measurement M27): 0.2014
- Th-T fluorescence, mean of three wells (Fig. 7a) (column suffix _20, measurement M28): 0.2017
- Th-T fluorescence, mean of three wells (Fig. 7a) (column suffix _20, measurement M29): 0.2027
- Th-T assay signal, mean of three wells (Fig. 7a) (column suffix _20, reading M1): 0.2262
- Th-T assay signal, mean of three wells (Fig. 7a) (column suffix _20, reading M2): 0.223
- Th-T assay signal, mean of three wells (Fig. 7a) (column suffix _20, reading M3): 0.2155
- Th-T assay signal, mean of three wells (Fig. 7a) (column suffix _20, reading M4): 0.2051
- Th-T assay signal, mean of three wells (Fig. 7a) (column suffix _20, reading M5): 0.2019
- Th-T assay signal, mean of three wells (Fig. 7a) (column suffix _20, reading M6): 0.1953
- Th-T assay signal, mean of three wells (Fig. 7a) (column suffix _20, reading M7): 0.1945
- Th-T assay signal, mean of three wells (Fig. 7a) (column suffix _20, reading M8): 0.1954
- Th-T assay signal, mean of three wells (Fig. 7a) (column suffix _20, reading M9): 0.1943
- Th-T assay signal, mean of three wells (Fig. 7a) (column suffix _20, reading M10): 0.1989
- Th-T assay signal, mean of three wells (Fig. 7a) (column suffix _20, reading M11): 0.1963
- Th-T assay signal, mean of three wells (Fig. 7a) (column suffix _20, reading M12): 0.198
- Th-T assay signal, mean of three wells (Fig. 7a) (column suffix _20, reading M13): 0.1957
- Th-T assay signal, mean of three wells (Fig. 7a) (column suffix _20, reading M14): 0.1953
- Th-T assay signal, mean of three wells (Fig. 7a) (column suffix _20, reading M15): 0.1958
- Th-T assay signal, mean of three wells (Fig. 7a) (column suffix _20, reading M16): 0.1968
- Th-T assay signal, mean of three wells (Fig. 7a) (column suffix _20, reading M17): 0.1967
- Th-T assay signal, mean of three wells (Fig. 7a) (column suffix _20, reading M18): 0.1963
- Fig. 7a Th-T reading, mean of three wells (column suffix _20, reading M85): 0.5666
- Fig. 7a Th-T reading, mean of three wells (column suffix _20, reading M86): 0.5976
- Fig. 7a Th-T reading, mean of three wells (column suffix _20, reading M87): 0.6445
- Fig. 7a Th-T reading, mean of three wells (column suffix _20, reading M88): 0.6876
- Fig. 7a Th-T reading, mean of three wells (column suffix _20, reading M89): 0.7312
- Fig. 7a Th-T reading, mean of three wells (column suffix _20, reading M90): 0.7695
- Fig. 7a Th-T reading, mean of three wells (column suffix _20, reading M91): 0.7994
- Fig. 7a Th-T reading, mean of three wells (column suffix _20, reading M92): 0.8356
- Fig. 7a Th-T reading, mean of three wells (column suffix _20, reading M93): 0.8329
- Fig. 7a Th-T reading, mean of three wells (column suffix _20, reading M94): 0.8638
- Fig. 7a Th-T reading, mean of three wells (column suffix _20, reading M95): 0.8786
- Fig. 7a Th-T reading, mean of three wells (column suffix _20, reading M96): 0.9004
- Fig. 7a Th-T reading, mean of three wells (column suffix _20, reading M97): 0.8843
- Fig. 7a Th-T reading, mean of three wells (column suffix _20, reading M98): 0.903
- Fig. 7a Th-T reading, mean of three wells (column suffix _20, reading M99): 0.9153
- Fig. 7a Th-T reading, mean of three wells (column suffix _20, reading M100): 0.9048
